Data: patent publication US11091476B2, “Protein kinase inhibitors, preparation method and medical use thereof” (Gan & Lee Pharmaceuticals, priority 2015, dated 2021)
Like-named read-outs stand apart in the source and are kept apart here.

Assays:
[1] = Pharmacokinetic determination in mouse (LC/MS/MS of plasma); assay type: in vivo, ICR mice; conditions: for AUC(0-t): read-out: Area under curve AUC0-t; for AUC(0-inf): read-out: Area under curve AUC0-∞; for half-life: read-out: Half life T1/2 (converted); for MRT: read-out: Retention time MRT
Method: Pharmacokinetic Determination of Representative Compounds of this Disclosure in Mouse
The ICR mice were used as the test animals, and the concentrations of the drugs in the plasma of mice at different time points after intragastric administration and intravenous administration of the representative compound of the present disclosure were determined by LC/MS/MS, so as to study the pharmacokinetic behavior of the compounds of the disclosure in mice and evaluate the pharmacokinetic characteristics thereof.
An appropriate amount of sample was weighed, and added with 0.1% hydroxyethyl cellulose/0.5% TWEEN®80 to a final volume to give 0.5 mg/ml solution for intragastric administration.
Whole blood was anticoagulated with EDTA-K2 and centrifuged, the supernatant was removed, and the residue was frozen at −20° C. until sample analysis. […] The plasma samples were treated in the same manner as that employed for plasma samples of the intragastrically administered group. Plasma samples were analyzed by LC-MS/MS, sample pretreatment was performed using protein precipitation method, the linear range of sample analysis was 1-2000 ng/ml, and the lowest quantification limit was 1 ng/ml.

[2] = test system: Human breast cancer cells MDA-MB-231; assay: Inhibition of proliferation of human breast cancer cell MDA-MB-231 (DAPI, In Cell Analyzer); assay type: cell-based; conditions: for IC50: Homo sapiens, MDA-MB-231, 72 hours incubation, read-out: IC50, proliferation of human breast cancer cell MDB-MA-231; for Inhibitory activity on proliferation of the MDA-MB-231 cell line, in words: experimental conclusion
Method: 200 μl of medium containing 0.2% DMSO (dimethylsulfoxide) was added into B2 to B10 of a 96-well plate; 300 μl of the above solution was added into B1; and • c. 100 μl of solution was taken from well B1, added into B2, and mixed well; then 100 μl of the resulting solution was taken and added into B3, and dilution was carried out in sequence to B9, so as to obtain standard solutions diluted by 3-fold sequentially. • (2) Preparation of Test Compound Solutions • a. […] 200 μl of medium containing 0.2% DMSO (dimethylsulfoxide) was added into H2 to H10 of the 96-well plate; and 300 μl of the above solution was added into H1; and • c. 100 μl of solution was taken from well H1, added into H2, and mixed well; then 100 μl of the resulting solution was taken and added into H3, and dilution was carried out in sequence to […], so as to obtain test compound solutions diluted by 3-fold sequentially.
2.3 Experimental Process: • 2.3.1: MDA-MB-231 cells were inoculated into a 96-well cell plate with black transparent bottom at 4000 cells/100 μl/well, and cultured overnight at 37° C.; • 2.3.2: The above samples were added at 100 μl/well to a culture plate inoculated with cells, gently patted to mix well, and incubated at 37° C. for 72 hours; • 2.3.3: Fixation: the cell plate was taken out, the medium was removed, and 50 μl of 4% paraformaldehyde was added per well to fix for 10 minutes; • 2.3.4: 50 μl of 0.1M glycine was added to neutralize for 10 minutes; • 2.3.5: 1×PBS (phosphate buffer pH 7.2) was used to wash twice; • 2.3.6: Permeabilization: 50 μl of 0.2% TRITON-X®100 (Triton) was added per well, and permeabilization was carried out at room temperature for 10 minutes; • 2.3.7: 1×PBS (Phosphate buffer pH 7.2) was used to wash twice; • 2.3.8: 5 mg/mL DAPI stock solution was diluted at a ratio of 1:5000 (final concentration of 1 μg/ml), and staining was performed at room temperature for 20 minutes; • 2.3.9: 1×PBS (Phosphate buffer pH 7.2) was used to wash three times; and • 2.3.10: Scanning and analysis were performed by an IN cell analyzer 2200.
The inhibition rate of each compound at each concentration point was calculated by the formula as follows and curve fitting was performed by GraphPad Prism 5 software to obtain the IC50 value.

[3] = male, ICR, mouse, plasma, po, mice, single intragastric administration, 5 mg/kg, Mean ± SD
[4] = male, ICR, mouse, plasma, mice, single intravenous administration, 2 mg/kg, Mean ± SD

| SMILES | AUC(0-t) [1, 3] [ng·h/mL] | AUC(0-inf) [1, 3] [ng·h/mL] | AUC(0-t) [1, 4] [ng·h/mL] | AUC(0-inf) [1, 4] [ng·h/mL] | clearance ([1]; male, ICR, mouse, plasma, mice, single intravenous administration, 2 mg/kg, Mean ± SD, read-out: Clearance rate Cl) [mL/min/kg] | IC50 [2] [nM] | Inhibitory activity on proliferation of the MDA-MB-231 cell line, in words [2] | bioavailability ([1]; male, ICR, mouse, plasma, oral, mice, intragastric 5 mg/kg vs intravenous 2 mg/kg) [%] | Cmax ([1]; male, ICR, mouse, plasma, po, mice, single intragastric administration, 5 mg/kg, Mean ± SD, read-out: Blood concentration Cmax) [ng/mL] | half-life [1, 3] [h] | MRT [1, 3] [h] | Vd ([1]; male, ICR, mouse, plasma, mice, single intravenous administration, 2 mg/kg, Mean ± SD, read-out: Apparent volume of distribution VZ) [L/kg] | half-life [1, 4] [h] | MRT [1, 4] [h] | Clearance rate Cl ([1]; mice, single intravenous administration, 2 mg/kg, Mean ± SD) [mL/min/kg] | Bioavailability and half-life in mice, in words ([1]; relative to LY2835219) |
| --- | --- | --- | --- | --- | --- | --- | --- | --- | --- | --- | --- | --- | --- | --- | --- | --- |
| CCN1CCN(Cc2ccc(Nc3ncc(F)c(-c4cc(F)c5nc(C)n(C(C)C)c5c4)n3)nc2)CC1 [LY2835219, reference compound] | 756 ± 34 | 765 ± 34 | 674 ± 82.1 | 679 ± 81 | 49.6 ± 5.72 | 229 | – | – | – | – | – | – | – | – | – | – |
| CCN1CCC(c2ccc(Nc3ncc(F)c(-c4cc(F)c5c(c4)C4(CCCC4)C(C)=N5)n3)nc2)CC1 [Example 12, N-(5-(1-ethylpiperidin-4-yl)pyridin-2-yl)-5-fluoro-4-(7′-fluoro-2′-methylspiro [cyclopentane-1,3′-indol]-5′-yl)pyrimidine-2-amino] | – | – | – | – | – | 183 | significant inhibitory activity | – | – | – | – | – | – | – | – | – |
| CC1=Nc2c(F)cc(-c3nc(Nc4ccc(C5CCN(C)CC5)cn4)ncc3F)cc2C12CCCC2 [Example 17, 5-Fluoro-4-(7′-fluoro-2′-methylspiro[cyclopentane-1,3′-indol]-5′-yl)-N-(5-(1-methylpiperidin-4-yl)pyridin-2-yl)pyrimidine-2-amino] | 2130 ± 96.9 | 2500 ± 387 | 1140 ± 77.8 | 1327 ± 4 | – | 110 | significant inhibitory activity | 75.1 | 134 ± 11.8 | 8.38 ± 3.16 | 9.45 ± 1.05 | 19.8 ± 0.81 | 9.1 ± 0.26 | 7.51 ± 0.28 | 25.2 ± 1.72 | higher bioavailability and longer half-life |
